Columns and labels:
PHBPU [1] = assay: Post-emergence herbicidal action against PHBPU; type: in vivo, Pharbitis purpurea
Summary of the method: (§1)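 A WP or EC formulation diluted in water with 0.2% wetting agent was sprayed at 600 to 800 l/ha onto one-leaf-stage plants grown in sandy loam. About 3 weeks later, action was rated visually in percent, 100% being dead plants.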

AVEFA [2] = assay: Pre-emergence herbicidal action against AVEFA; type: in vivo, Avena fatua; conditions: 80 g/ha, pre-emergence
Summary of the method: (§2)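 Greenhouse pots of sandy loam held seeds covered with soil, onto which the compound was applied before emergence. An aqueous suspension or emulsion of WP or EC was used at 600 to 800 l/ha with 0.2% wetting agent. Percent damage was judged visually at 3 weeks.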

STEME [3] = assay: Pre-emergence herbicidal action against STEME; type: in vivo, Stellaria media
Summary of the method: as §2

DIGSA [4] = assay: Pre-emergence herbicidal action against DIGSA; type: in vivo, Digitaria sanguinalis
Summary of the method: as §2

AVEFA [5] = assay: Post-emergence herbicidal action against AVEFA; type: in vivo, Avena fatua; conditions: 20 g/ha, visual assessment about 3 weeks after treatment, 100% = plants have died, 0% = like control plants
Summary of the method: as §1

MATIN [6] = assay: Pre-emergence herbicidal action against MATIN; type: in vivo, Matricaria inodora
Summary of the method: as §2

VIOTR [7] = assay: Pre-emergence herbicidal action against VIOTR; type: in vivo, Viola tricolor
Summary of the method: as §2

VIOTR [8] = assay: Post-emergence herbicidal action against VIOTR; type: in vivo, Viola tricolor
Summary of the method: as §1

STEME [9] = assay: Post-emergence herbicidal action against STEME; type: in vivo, Stellaria media
Summary of the method: as §1

SETVI [10] = assay: Pre-emergence herbicidal action against SETVI; type: in vivo, Setaria viridis; conditions: dosage 80 g/ha
Summary of the method: as §2

ABUTH [11] = assay: Post-emergence herbicidal action against ABUTH; type: in vivo, Abutilon theophrasti; conditions: visual assessment about 3 weeks after treatment vs untreated controls
Summary of the method: as §1

MATIN [12] = assay: Post-emergence herbicidal action against MATIN; type: in vivo, Matricaria inodora
Summary of the method: as §1

AMARE [13] = assay: Post-emergence herbicidal action against AMARE; type: in vivo, Amaranthus retroflexus; conditions: 20 g/ha, visual assessment about 3 weeks after treatment, 100% = plants have died, 0% = like control plants
Summary of the method: as §1

ECHCG [14] = assay: Pre-emergence herbicidal action against ECHCG; type: in vivo, Echinochloa crus-galli; conditions: 80 g/ha
Summary of the method: as §2

POLCO = assay: Pre-emergence herbicidal action against POLCO; type: in vivo, Polygonum convolvulus; conditions: dosage 80 g/ha
Summary of the method: as §2

ALOMY = assay: Pre-emergence herbicidal action against ALOMY; type: in vivo, Alopecurus myosuroides; conditions: 80 g/ha, pre-emergence, scored visually after 3 weeks vs untreated controls (100% = plants have died, 0% = like control plants)
Summary of the method: as §2

ABUTH [15] = assay: Pre-emergence herbicidal action against ABUTH; type: in vivo, Abutilon theophrasti; conditions: for Pre-emergence action against ABUTH (herbicidal activity): 80 g/ha, scored visually after 3 weeks vs untreated controls (100% = plants have died, 0% = like control plants); for Pre-emergence action against ABUTH (herbicidal activity in percent): dosage 20 g/ha, scored visually after 3 weeks vs untreated controls, 100% = plants have died, 0% = like control plants
Summary of the method: as §2

AMARE [16] = assay: Pre-emergence herbicidal action against AMARE; type: in vivo, Amaranthus retroflexus
Summary of the method: as §2

SETVI [17] = assay: Post-emergence herbicidal action against SETVI; type: in vivo, Setaria viridis; conditions: dosage 20 g/ha
Summary of the method: as §1

ECHCG [18] = assay: Post-emergence herbicidal action against ECHCG; type: in vivo, Echinochloa crus-galli
Summary of the method: as §1

DIGSA [19] = assay: Post-emergence herbicidal action against DIGSA; type: in vivo, Digitaria sanguinalis
Summary of the method: as §1

VERPE [20] = assay: Pre-emergence herbicidal action against VERPE; type: in vivo, Veronica persica; conditions: dosage 80 g/ha
Summary of the method: as §2

VERPE [21] = assay: Post-emergence herbicidal action against VERPE; type: in vivo, Veronica persica; conditions: 20 g/ha
Summary of the method: as §1

PHBPU [22] = assay: Pre-emergence herbicidal action against PHBPU; type: in vivo, Pharbitis purpurea; conditions: dosage 80 g/ha
Summary of the method: as §2

[23] = 20 g/ha, scored visually after 3 weeks vs untreated controls, 100% = plants have died, 0% = like control plants
[24] = 80 g/ha, scored visually after 3 weeks vs untreated controls (100% = plants have died, 0% = like control plants)

Row | Compound | Post-emergence action against PHBPU in % (PHBPU [1]; dosage 20 g/ha) [%] | Pre-emergence action against AVEFA in % (AVEFA [2]) [%] | Pre-emergence action against STEME in % (STEME [3]; dosage 20 g/ha) [%] | Pre-emergence action against STEME in % (STEME [3]; dosage 80 g/ha) [%] | Pre-emergence action against DIGSA in % (DIGSA [4]; dosage 80 g/ha) [%] | Post-emergence action at 20 g/ha against AVEFA in % (AVEFA [5]) [%] | Pre-emergence action against MATIN in % (MATIN [6]; dosage 20 g/ha) [%] | Pre-emergence action against MATIN in % (MATIN [6]; dosage 80 g/ha) [%] | Pre-emergence action against VIOTR in % (VIOTR [7]; dosage 80 g/ha) [%] | Post-emergence action against STEME in % (STEME [9]; 20 g/ha) [%] | Post-emergence action against STEME in % (STEME [9]; dosage 5 g/ha) [%] | Pre-emergence action against SETVI in % (SETVI [10]) [%] | Post-emergence action against ABUTH in % (ABUTH [11]; dosage 5 g/ha) [%] | Post-emergence action against ABUTH in % (ABUTH [11]; dosage 20 g/ha) [%] | Post-emergence action against MATIN in % (MATIN [12]; dosage 5 g/ha) [%] | Post-emergence action against MATIN in % (MATIN [12]; dosage 20 g/ha) [%] | Pre-emergence action against ECHCG in % (ECHCG [14]) [%] | Pre-emergence action against ABUTH (herbicidal activity) (ABUTH [15]) [%] | Pre-emergence action against ABUTH (herbicidal activity in percent) (ABUTH [15]) [%] | Pre-emergence action against AMARE in % (AMARE [16]; [23]) [%] | further results
1 | CCCn1nnnc1NC(=O)c1ccc(C(F)(F)F)c(C(=O)NCC)c1Br [Example 3-208] | 90 | 100 | 90 | 100 | 80 | 80 | 100 | 100 | 100 | 90 | 80 | 100 | 90 | 90 | 90 | 90 | 80 | 100 | 100 | 100 | Post-emergence action against PHBPU in % (PHBPU [1]; dosage 5 g/ha): 80%; Post-emergence action against VIOTR in % (VIOTR [8]; 5 g/ha): 100%; Post-emergence action against VIOTR in % (VIOTR [8]; 20 g/ha): 100%; Post-emergence action at 20 g/ha against AMARE in % (AMARE [13]): 90%; Pre-emergence action against POLCO in % (POLCO): 80%; Pre-emergence action against ALOMY (herbicidal activity) (ALOMY): 90%; Pre-emergence action against AMARE in % (AMARE [16]; [24]): 100%
2 | CCCn1nnnc1NC(=O)c1ccc(C(F)(F)F)c(C(=O)NC2CC2)c1CC [Example 3-273] | 80 | 90 | 90 | 100 | 100 | 80 | 90 | 100 | 100 | 90 | 80 | 100 | 80 | 90 | 80 | 90 | 80 | 100 | 90 | 100 | Post-emergence action against SETVI in % (SETVI [17]): 80%; Pre-emergence action against DIGSA in % (DIGSA [4]; dosage 20 g/ha): 90%; Post-emergence action against ECHCG in % (ECHCG [18]; dosage 5 g/ha): 80%; Post-emergence action against ECHCG in % (ECHCG [18]; dosage 20 g/ha): 80%; Pre-emergence action against VIOTR in % (VIOTR [7]; dosage 20 g/ha): 100%; Post-emergence action against DIGSA in % (DIGSA [19]; 5 g/ha): 80%; Post-emergence action against DIGSA (DIGSA [19]; 20 g/ha): 90%; Pre-emergence action against VERPE in % (VERPE [20]): 100%; Post-emergence action against VERPE in % (VERPE [21]): 80%; Pre-emergence action against PHBPU in % (PHBPU [22]): 90%; Pre-emergence action against AMARE in % (AMARE [16]; [24]): 100%

Source: patent US12655116B2, “Substituted isophthalic acid diamides” (Bayer Aktiengesellschaft, priority 2020, dated 2026)
